{
  "source": "paper PMC3662613",
  "about": "(Chemmedchem, 2013)",
  "key": {"[1]": {"molecular_target": "p97 ATPase (Homo sapiens, UniProt P55072)", "sequence (P55072 whole entry)": "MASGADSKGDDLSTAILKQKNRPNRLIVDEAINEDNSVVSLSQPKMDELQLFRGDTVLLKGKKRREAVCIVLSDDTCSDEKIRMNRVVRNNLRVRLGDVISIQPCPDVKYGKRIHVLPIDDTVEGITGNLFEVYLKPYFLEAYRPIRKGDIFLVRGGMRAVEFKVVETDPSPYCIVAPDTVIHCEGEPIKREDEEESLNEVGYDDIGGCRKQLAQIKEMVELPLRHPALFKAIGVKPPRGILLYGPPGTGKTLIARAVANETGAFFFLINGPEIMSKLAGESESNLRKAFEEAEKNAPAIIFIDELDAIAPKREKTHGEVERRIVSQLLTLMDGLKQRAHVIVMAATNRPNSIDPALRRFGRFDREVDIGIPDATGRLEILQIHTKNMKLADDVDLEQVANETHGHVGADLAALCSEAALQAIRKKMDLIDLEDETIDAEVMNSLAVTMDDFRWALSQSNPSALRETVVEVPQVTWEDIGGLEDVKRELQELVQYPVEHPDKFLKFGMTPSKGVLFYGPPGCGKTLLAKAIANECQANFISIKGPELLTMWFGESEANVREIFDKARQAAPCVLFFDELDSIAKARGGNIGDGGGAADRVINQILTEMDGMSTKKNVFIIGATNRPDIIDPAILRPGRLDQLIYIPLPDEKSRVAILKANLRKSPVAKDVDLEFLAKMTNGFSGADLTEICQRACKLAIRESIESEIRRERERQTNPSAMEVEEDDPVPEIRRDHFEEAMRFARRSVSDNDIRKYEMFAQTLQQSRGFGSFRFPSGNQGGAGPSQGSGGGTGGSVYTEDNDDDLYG", "test": "p97 ATPase assay", "type": "biochemical", "conditions": "for IC50: IC50 ATPase, triplicate, mean ±SD"}, "[2]": {"system": "ODD-Luc (p97-independent proteasome substrate)", "test": "ODD-Luc reporter degradation assay, dual reporter HeLa cell line", "type": "cell-based", "conditions": "Homo sapiens, read-out: IC50 ODD-Luc"}, "[3]": {"system": "HCT15", "test": "Cytotoxicity / antiproliferative activity", "type": "cell-based", "conditions": "Homo sapiens"}, "[4]": {"system": "SW403", "test": "Cytotoxicity / antiproliferative activity", "type": "cell-based", "conditions": "Homo sapiens"}, "[5]": {"system": "NCI 60 cancer cell lines", "test": "NCI 60-cell-line screen", "type": "cell-based", "conditions": "48 h; for Mean GP: mean of 60 NCI cell lines ±SD"}, "[6]": {"test": "Aqueous solubility", "type": "physicochemical", "conditions": "aqueous buffer"}, "[7]": {"test": "PAMPA", "type": "in vitro ADME", "conditions": "acceptor pH 7.4; for Papp: PAMPA; for PAMPA Pe: in the presence of 20% CH3CN"}, "[8]": {"test": "Plasma protein binding", "type": "in vitro ADME", "conditions": "human"}, "[9]": {"test": "Plasma protein binding", "type": "in vitro ADME", "conditions": "mouse"}, "[10]": {"test": "Plasma stability", "type": "in vitro ADME", "conditions": "human"}, "[11]": {"test": "Plasma stability", "type": "in vitro ADME", "conditions": "mouse"}, "[12]": {"test": "Hepatic microsome stability", "type": "in vitro ADME", "conditions": "human, liver microsomes"}, "[13]": {"test": "Hepatic microsome stability", "type": "in vitro ADME", "conditions": "mouse, liver microsomes"}, "[14]": {"test": "Hepatic toxicity", "type": "cell-based", "conditions": "human, Fa2N-4 immortalized human hepatocytes"}, "[15]": {"system": "poly(ADP-ribose) polymerase (PARP)", "test": "PARP cleavage immunoblot, SW403 cells", "type": "cell-based", "conditions": "2 h"}, "[16]": {"system": "HMEC, PHMLEB, PHMLER cells", "test": "Cellular viability", "type": "cell-based, human", "conditions": "24 h, CellTiter-Glo"}, "[17]": {"system": "caspases 3 and 7", "test": "Caspase 3 and 7 activity in colon cancer cell lines", "type": "cell-based", "conditions": "multiple colon cancer cell lines; dose- and time-dependent"}, "[18]": {"molecular_target": "5-HT5a (Homo sapiens, UniProt P47898)", "sequence (P47898 whole entry, species assumed)": "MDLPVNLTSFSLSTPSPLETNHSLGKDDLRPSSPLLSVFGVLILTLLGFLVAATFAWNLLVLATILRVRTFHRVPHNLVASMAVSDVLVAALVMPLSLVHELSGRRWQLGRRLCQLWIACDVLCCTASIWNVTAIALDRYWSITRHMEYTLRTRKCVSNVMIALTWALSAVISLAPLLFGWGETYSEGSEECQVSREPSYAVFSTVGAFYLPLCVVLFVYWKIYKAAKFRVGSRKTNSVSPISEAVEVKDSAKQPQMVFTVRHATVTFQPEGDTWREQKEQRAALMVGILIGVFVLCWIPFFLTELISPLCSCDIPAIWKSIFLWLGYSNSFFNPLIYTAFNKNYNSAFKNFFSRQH", "test": "CNS panel binding", "conditions": "5HT5a receptor"}, "[19]": {"molecular_target": "JAK1 domain1 (Homo sapiens, UniProt P23458)", "sequence (P23458 whole entry, the tested form may be a part)": "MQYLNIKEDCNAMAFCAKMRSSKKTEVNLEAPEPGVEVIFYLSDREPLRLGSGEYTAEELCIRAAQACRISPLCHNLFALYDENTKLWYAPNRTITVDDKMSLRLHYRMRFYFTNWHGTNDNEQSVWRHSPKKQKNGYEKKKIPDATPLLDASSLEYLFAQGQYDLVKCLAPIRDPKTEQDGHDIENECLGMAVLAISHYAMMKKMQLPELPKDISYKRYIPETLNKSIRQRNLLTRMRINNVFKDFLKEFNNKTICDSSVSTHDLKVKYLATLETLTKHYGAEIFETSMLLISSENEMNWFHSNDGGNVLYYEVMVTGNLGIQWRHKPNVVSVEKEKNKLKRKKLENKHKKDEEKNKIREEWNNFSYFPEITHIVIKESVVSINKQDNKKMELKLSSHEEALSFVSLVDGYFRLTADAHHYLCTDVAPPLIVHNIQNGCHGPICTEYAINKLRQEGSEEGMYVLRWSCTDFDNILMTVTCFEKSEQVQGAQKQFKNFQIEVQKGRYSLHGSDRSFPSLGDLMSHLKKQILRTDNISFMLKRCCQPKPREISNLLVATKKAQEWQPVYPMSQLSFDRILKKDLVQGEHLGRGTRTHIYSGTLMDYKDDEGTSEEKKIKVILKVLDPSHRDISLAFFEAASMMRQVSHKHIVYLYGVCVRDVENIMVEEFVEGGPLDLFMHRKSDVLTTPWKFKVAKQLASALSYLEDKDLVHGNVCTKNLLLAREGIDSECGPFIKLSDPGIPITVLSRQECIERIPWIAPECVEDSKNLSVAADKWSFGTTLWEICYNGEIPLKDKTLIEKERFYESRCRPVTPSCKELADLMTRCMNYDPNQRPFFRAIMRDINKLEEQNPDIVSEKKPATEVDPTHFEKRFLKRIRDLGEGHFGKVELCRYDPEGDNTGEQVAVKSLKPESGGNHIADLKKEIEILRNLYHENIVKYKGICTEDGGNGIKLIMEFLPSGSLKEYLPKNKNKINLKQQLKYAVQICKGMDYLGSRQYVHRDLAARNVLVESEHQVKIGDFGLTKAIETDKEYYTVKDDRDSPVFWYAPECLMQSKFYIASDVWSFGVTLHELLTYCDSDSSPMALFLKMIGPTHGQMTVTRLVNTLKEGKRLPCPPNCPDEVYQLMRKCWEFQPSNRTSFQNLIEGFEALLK", "test": "KiNativ profiling", "type": "binding", "conditions": "20 μM, Other"}, "[20]": {"molecular_target": "PIP5K3 (Homo sapiens, UniProt Q9Y2I7)", "sequence (Q9Y2I7 whole entry)": "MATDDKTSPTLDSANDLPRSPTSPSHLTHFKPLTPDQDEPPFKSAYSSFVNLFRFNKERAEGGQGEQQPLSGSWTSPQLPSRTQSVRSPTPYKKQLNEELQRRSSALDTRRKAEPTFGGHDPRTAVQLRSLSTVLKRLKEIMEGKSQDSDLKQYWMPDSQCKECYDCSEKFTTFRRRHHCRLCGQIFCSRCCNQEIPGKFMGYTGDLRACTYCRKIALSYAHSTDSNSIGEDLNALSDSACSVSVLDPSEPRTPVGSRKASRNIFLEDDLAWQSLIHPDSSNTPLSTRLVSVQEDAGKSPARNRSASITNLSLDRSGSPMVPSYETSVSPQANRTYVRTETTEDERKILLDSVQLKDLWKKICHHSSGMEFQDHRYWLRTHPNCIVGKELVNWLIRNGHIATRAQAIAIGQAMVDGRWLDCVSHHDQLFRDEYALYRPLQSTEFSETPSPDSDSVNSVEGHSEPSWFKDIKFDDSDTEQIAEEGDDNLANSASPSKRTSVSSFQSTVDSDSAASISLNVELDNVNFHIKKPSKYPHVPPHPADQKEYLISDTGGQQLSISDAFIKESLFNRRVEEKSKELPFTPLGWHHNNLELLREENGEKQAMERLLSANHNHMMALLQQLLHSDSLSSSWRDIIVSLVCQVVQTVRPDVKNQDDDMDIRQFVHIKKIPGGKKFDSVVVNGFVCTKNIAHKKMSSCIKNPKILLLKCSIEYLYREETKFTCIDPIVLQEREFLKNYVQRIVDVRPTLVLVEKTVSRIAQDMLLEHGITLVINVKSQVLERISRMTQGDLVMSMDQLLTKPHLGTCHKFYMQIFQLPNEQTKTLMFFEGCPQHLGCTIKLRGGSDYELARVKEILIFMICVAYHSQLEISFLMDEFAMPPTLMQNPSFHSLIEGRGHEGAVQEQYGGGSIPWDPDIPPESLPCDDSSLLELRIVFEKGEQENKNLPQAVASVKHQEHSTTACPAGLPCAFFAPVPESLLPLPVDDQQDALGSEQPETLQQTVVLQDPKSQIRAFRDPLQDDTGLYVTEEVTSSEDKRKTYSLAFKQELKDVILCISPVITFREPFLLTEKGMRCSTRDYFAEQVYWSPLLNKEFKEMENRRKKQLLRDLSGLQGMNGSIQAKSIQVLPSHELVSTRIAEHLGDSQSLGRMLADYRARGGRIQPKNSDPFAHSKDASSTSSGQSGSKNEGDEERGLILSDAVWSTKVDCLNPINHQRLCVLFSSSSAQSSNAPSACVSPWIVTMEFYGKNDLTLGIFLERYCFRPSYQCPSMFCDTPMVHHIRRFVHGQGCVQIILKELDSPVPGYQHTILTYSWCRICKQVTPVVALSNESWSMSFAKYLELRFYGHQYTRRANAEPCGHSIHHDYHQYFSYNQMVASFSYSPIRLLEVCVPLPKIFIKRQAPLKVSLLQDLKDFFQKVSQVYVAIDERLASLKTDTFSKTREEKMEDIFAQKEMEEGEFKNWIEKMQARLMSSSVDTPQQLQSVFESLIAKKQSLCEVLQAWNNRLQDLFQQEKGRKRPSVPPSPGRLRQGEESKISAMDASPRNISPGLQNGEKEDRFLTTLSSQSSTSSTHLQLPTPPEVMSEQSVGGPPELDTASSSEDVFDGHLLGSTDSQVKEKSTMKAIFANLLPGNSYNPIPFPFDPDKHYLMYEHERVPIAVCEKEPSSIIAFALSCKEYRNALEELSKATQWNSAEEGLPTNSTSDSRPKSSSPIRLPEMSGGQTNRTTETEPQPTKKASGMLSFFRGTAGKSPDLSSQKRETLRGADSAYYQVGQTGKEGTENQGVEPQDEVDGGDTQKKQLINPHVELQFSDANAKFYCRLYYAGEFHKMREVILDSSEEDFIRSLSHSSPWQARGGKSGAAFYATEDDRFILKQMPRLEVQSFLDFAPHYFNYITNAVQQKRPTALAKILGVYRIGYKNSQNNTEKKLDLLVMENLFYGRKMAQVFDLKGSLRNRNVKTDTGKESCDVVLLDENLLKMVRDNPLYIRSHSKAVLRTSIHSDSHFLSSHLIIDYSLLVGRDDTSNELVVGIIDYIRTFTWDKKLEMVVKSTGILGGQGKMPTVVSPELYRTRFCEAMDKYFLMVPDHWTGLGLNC", "test": "KiNativ profiling", "type": "binding", "conditions": "20 μM, ATP"}, "[21]": {"system": "LC3-II", "test": "Autophagy reporter LC3-II immunoblot", "conditions": "for accumulation of lipidated LC3-II: HEK293, 5 h"}, "[22]": {"system": "ubiquitin conjugates", "test": "Ubiquitin conjugate accumulation immunoblot, SW403 cells", "conditions": "5–10 μM; nuclear plus membrane and cytosolic compartments"}, "[23]": {"system": "∼170 kinases", "test": "KiNativ kinase profiling, whole panel, PC3 cell lysate", "type": "binding, Homo sapiens", "conditions": "20 μM"}, "[24]": {"conditions": "HCT-15, 24 h, read-out: Cytotoxicity GI50 HCT15 24 h"}, "[25]": {"conditions": "HCT-15, 72 h, read-out: Cytotoxicity GI50 HCT15 72 h"}, "[26]": {"conditions": "SW-403, 24 h, read-out: Cytotoxicity GI50 SW403 24 h"}, "[27]": {"conditions": "SW-403, 72 h, read-out: Cytotoxicity GI50 SW403 72 h"}},
  "note": "Where “and” joins values, the source holds several entries; their conditions need not be identical. Equal entries are not always repeated. Where two headings read alike, the source gives them in different places.",
  "data": [
    {"compound": "COc1cccc2c(NCc3ccccc3)nc(-n3c(N)nc4ccccc43)nc12", "note": "[ML240, 2-(2-Amino-1H-benzo[d]imidazol-1-yl)-N-benzyl-8-methoxyquinazolin-4-amine]", "values": [
      {"measurement": "Ki", "setting": "[1]", "value": 220, "unit": "nM"},
      {"measurement": "mechanism of p97 inhibition with respect to ATP", "setting": "[1]", "value": "competitively"},
      {"measurement": "IC50", "setting": "[1]", "value": "~100 nM and 100 nM"},
      {"measurement": "IC50", "setting": "[2]", "value": "28000 ± 7000", "unit": "nM"},
      {"measurement": "GI50", "setting": "[3]; [24]", "value": "760 ± 140", "unit": "nM"},
      {"measurement": "GI50", "setting": "[3]; [25]", "value": "540 ± 190", "unit": "nM"},
      {"measurement": "GI50", "setting": "[4]; [26]", "value": "500 ± 70", "unit": "nM"},
      {"measurement": "GI50", "setting": "[4]; [27]", "value": "500 ± 100", "unit": "nM"},
      {"measurement": "Highest GP", "setting": "[5]; least inhibited individual cancer cell line", "value": "−43.8 (HS 578T) %"},
      {"measurement": "Mean GP", "setting": "[5]", "value": "−84.5±15.5", "unit": "%"},
      {"measurement": "Lowest GP", "setting": "[5]; most inhibited individual cancer cell line", "value": "−100.0 (OVCAR-4) %"},
      {"measurement": "solubility", "setting": "[6]; pH 5, aqueous buffer", "value": 0.35, "unit": "µg/mL"},
      {"measurement": "solubility", "setting": "[6]; pH 6.2, aqueous buffer", "value": 0.33, "unit": "µg/mL"},
      {"measurement": "solubility", "setting": "[6]; pH 7.4, aqueous buffer", "value": 0.27, "unit": "µg/mL"},
      {"measurement": "Papp", "setting": "[7]; PAMPA Pe, donor pH 5.0", "value": 357, "unit": "×10⁻⁶ cm/s"},
      {"measurement": "Papp", "setting": "[7]; PAMPA Pe, donor pH 6.2", "value": 628, "unit": "×10⁻⁶ cm/s"},
      {"measurement": "Papp", "setting": "[7]; pH 7.4, PAMPA Pe, donor pH 7.4", "value": "< 60.3", "unit": "×10⁻⁶ cm/s"},
      {"measurement": "fraction unbound at 1 μM", "setting": "[8]", "value": 0.0047},
      {"measurement": "fraction unbound at 10 μM", "setting": "[8]", "value": 0.0029},
      {"measurement": "fraction unbound at 1 μM", "setting": "[9]", "value": 0.0027},
      {"measurement": "fraction unbound at 10 μM", "setting": "[9]", "value": 0.0037},
      {"measurement": "remaining at 3 h", "setting": "[10]", "value": 100, "unit": "%"},
      {"measurement": "remaining at 3 h", "setting": "[11]", "value": 100, "unit": "%"},
      {"measurement": "remaining at 1 h", "setting": "[12]", "value": 54.3, "unit": "%"},
      {"measurement": "remaining at 1 h", "setting": "[13]", "value": 0.63, "unit": "%"},
      {"measurement": "CC50", "setting": "[14]", "value": 8500, "unit": "nM"},
      {"measurement": "cleavage of PARP", "setting": "[15]", "value": "induced efficient cleavage"},
      {"measurement": "potency on normal vs immortalized and tumorigenic cell lines", "setting": "[16]", "value": "slightly greater potency toward the immortalized and transformed cells"},
      {"measurement": "induction of caspase activity", "setting": "[17]", "value": "induced caspase activity"},
      {"measurement": "Ki", "setting": "[18]", "value": 2500, "unit": "nM"},
      {"measurement": "% Inhibition", "setting": "[19]", "value": "> 50", "unit": "%"},
      {"measurement": "% Inhibition", "setting": "[20]", "value": "> 50", "unit": "%"},
      {"measurement": "time of LC3-II accumulation after addition of drug", "setting": "[21]; HCT116, 10 μM, as early as", "value": 10, "unit": "min"},
      {"measurement": "accumulation of lipidated LC3-II", "setting": "[21]", "value": "induced accumulation"},
      {"measurement": "accumulation of ubiquitin conjugates", "setting": "[22]", "value": "caused accumulation of ubiquitin conjugates"}
    ]},
    {"compound": "c1ccc(CNc2nc(N3CCOc4ccccc43)nc3c2CCCC3)cc1", "note": "[ML241, 2-(2H-Benzo[b][1,4]oxazin-4(3H)-yl)-N-benzyl-5,6,7,8-tetrahydroquinazolin-4-amine]", "values": [
      {"measurement": "Ki", "setting": "[1]", "value": 350, "unit": "nM"},
      {"measurement": "mechanism of p97 inhibition with respect to ATP", "setting": "[1]", "value": "competitively"},
      {"measurement": "IC50", "setting": "[1]", "value": "~100 nM and 100 nM"},
      {"measurement": "IC50", "setting": "[2]", "value": "46000 ± 8000", "unit": "nM"},
      {"measurement": "GI50", "setting": "[3]; [24]", "value": "53000 ± 5000", "unit": "nM"},
      {"measurement": "GI50", "setting": "[3]; [25]", "value": "13000 ± 4000", "unit": "nM"},
      {"measurement": "GI50", "setting": "[4]; [26]", "value": "33000 ± 7000", "unit": "nM"},
      {"measurement": "GI50", "setting": "[4]; [27]", "value": "12000 ± 3000", "unit": "nM"},
      {"measurement": "Mean GP", "setting": "[5]", "value": "92.8±22.8", "unit": "%"},
      {"measurement": "solubility", "setting": "[6]; pH 5, aqueous buffer", "value": 28, "unit": "µg/mL"},
      {"measurement": "solubility", "setting": "[6]; pH 6.2, aqueous buffer", "value": 0.13, "unit": "µg/mL"},
      {"measurement": "solubility", "setting": "[6]; pH 7.4, aqueous buffer", "value": 0.2, "unit": "µg/mL"},
      {"measurement": "PAMPA Pe", "setting": "[7]; donor pH 5.0", "value": 1164, "unit": "×10⁻⁶ cm/s"},
      {"measurement": "PAMPA Pe", "setting": "[7]; donor pH 6.2", "value": 2504, "unit": "×10⁻⁶ cm/s"},
      {"measurement": "PAMPA Pe", "setting": "[7]; donor pH 7.4", "value": 2278, "unit": "×10⁻⁶ cm/s"},
      {"measurement": "fraction unbound at 1 μM", "setting": "[8]", "value": 0.0003},
      {"measurement": "fraction unbound at 10 μM", "setting": "[8]", "value": 0.0005},
      {"measurement": "fraction unbound at 1 μM", "setting": "[9]", "value": 0.0005},
      {"measurement": "fraction unbound at 10 μM", "setting": "[9]", "value": 0.0009},
      {"measurement": "remaining at 3 h", "setting": "[10]", "value": 100, "unit": "%"},
      {"measurement": "remaining at 3 h", "setting": "[11]", "value": 100, "unit": "%"},
      {"measurement": "remaining at 1 h", "setting": "[12]", "value": 19, "unit": "%"},
      {"measurement": "remaining at 1 h", "setting": "[13]", "value": 2.57, "unit": "%"},
      {"measurement": "CC50", "setting": "[14]", "value": "> 50000", "unit": "nM"},
      {"measurement": "inhibition of labeling across the panel", "setting": "[23]", "value": "did not appreciably inhibit labeling"},
      {"measurement": "accumulation of lipidated LC3-II", "setting": "[21]", "value": "lack of effect"},
      {"measurement": "accumulation of ubiquitin conjugates", "setting": "[22]", "value": "caused accumulation of ubiquitin conjugates"}
    ]}
  ]
}
